Source: patent US20230104487A1, “11-(4-CHLOROPHENYL)-4-(2,3-DIHYDRO-1H-INDOLE-1-CARBONYL)-3,11-DIMETHYL-5,10,DIOXATRICYCLO[7.4.0.0,2,6,]TRIDECA-1,3,6,8-TETRAEN-13-ONE AND DERIVATIVES AS DESTABILIZER OF CRY1 FOR THE TREATMENT OF CIRCADIAN RHYTHM ASSOCIATED DISEASES AND DISORDERS” (KOC UNIVERSITESI, priority 2019, published 2023)
“Also recorded” adds a separate entry of the source.

Assays:
[1] = tested on: Ras transformed p53-null MEF cell line; assay: Apoptosis assay (PARP cleavage) with oxaliplatin; type: cell-based, mouse; settings: 0, 10 or 20 μM oxaliplatin followed by FORMULA I
Description: FIGS. 6A-6B are an illustration of FORMULA I enhanced the effect of oxalipilatin in p53 null MSF cells. Ras pT24 transformed p53 null MSF fibroblast cells were treated with 0, 10 or 20 μM oxaliplatin and incubated for 24 h. Then either DMSO or FORMULA I was added and incubated for 16 h. Cells were lysed and analyzed via protein immunoblot technique. […] Bar graph was drawn normalizing to 10 μM dosage of oxaliplatin (Data represent the mean±SEM, n=4 **: p<0.005, * p<0.05 versus DMSO control by two-way ANOVA).
In previous studies it was reported that […] mutation sensitizes the Ras transformed p53-null cells, but not cells with wild-type p53, to apoptosis induced by UV or UV mimetic agents e.g oxaliplatin. Using fibroblasts isolated from the skin of Cry1^−/−Cry2^−/−p53^−/− and p53^−/− mice, it has been shown that Cry deletion on the p53-null background sensitized the cells to bulky-DNA adduct-induced apoptosis (Lee and Sancar, 2011). With the expectation that FORMULA I would destabilize CRY1 and increase the effectiveness of UV mimetic chemotherapeutic agents, we performed apoptosis assay with Ras transformed p53-null MEF cell lines. In this assay, cells were treated by increasing dose of oxaliplatin for 16 h followed by FORMULA I treatment for 24 h and probed for apoptosis by measuring PARP cleavage. […]

CRY1 = target: T1, CRY1 (Homo sapiens, UniProt Q16526); assay: Protein immunoblot, unsynchronized U2-OS cells, CRY1; type: cell-based; settings: Western blot
T1 construct: To evaluate the effect of FORMULA I on the endogenous protein and mRNA level of clock genes; endogenous in cells; host or cells: U2-OS
T1 sequence (Q16526 1-586): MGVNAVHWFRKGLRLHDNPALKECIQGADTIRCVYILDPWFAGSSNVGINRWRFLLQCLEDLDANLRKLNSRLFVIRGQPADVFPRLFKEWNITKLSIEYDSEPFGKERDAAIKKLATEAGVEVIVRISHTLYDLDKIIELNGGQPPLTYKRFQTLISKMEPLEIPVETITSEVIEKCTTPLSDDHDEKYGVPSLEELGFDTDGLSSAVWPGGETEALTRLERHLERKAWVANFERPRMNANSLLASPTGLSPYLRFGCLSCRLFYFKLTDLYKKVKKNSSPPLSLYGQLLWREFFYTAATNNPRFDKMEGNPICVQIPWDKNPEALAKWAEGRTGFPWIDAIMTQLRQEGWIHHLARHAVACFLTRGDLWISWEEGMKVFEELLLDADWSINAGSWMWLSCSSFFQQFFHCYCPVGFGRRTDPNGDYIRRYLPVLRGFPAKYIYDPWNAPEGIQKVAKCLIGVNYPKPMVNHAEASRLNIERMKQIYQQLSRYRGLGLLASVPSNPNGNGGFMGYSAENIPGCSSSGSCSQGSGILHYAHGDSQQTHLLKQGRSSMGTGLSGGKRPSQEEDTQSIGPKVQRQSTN
Description: Cells were lysed in RIPA buffer (50 mM Tris, 150 mM NaCl, 1% Triton-X, 0.1% SDS) with fresh Protease inhibitor cocktail (PIC). After centrifugation at 13000 rpm for 15 minutes at 4° C., supernatant was used to determine the protein amount using Pierce Protein Assay (Thermo Scientific) according to the manufacturer's instruction. Mice liver samples were homogenized and lysed with Dounce homogenizer and RIPA buffer. After homogenization samples were incubated 10 minutes on ice. After centrifugation 13000 rpm 15 minutes at 4° C. supernatant was used for the whole cell lysate. Subcellular fractionation of liver samples: Liver samples were homogenized with cytosolic lysis buffer (10 mM HEPES pH 7.9, 10 mM KCl, 0.1 mM EDTA, 0.05% NP40, proteasome inhibitor) by pipetting 40 times with a cut tip. Then samples were incubated 10 minutes on ice and centrifuged for 3 minutes at 3000 rpm at 4° C. Supernatant was saved in a new tube, and pellet was processed for the nuclear fraction. Supernatant was centrifuged at 13000 rpm for 3 minutes at 4° C. where new supernatant saved as the cytosolic fraction. […] ECL buffer system (Advansta WesternBright) was used to visualize HRP chemi-luminescence via BioRad ChemiDoc Touch visualizer.

For `Cc1c(C(=O)N2CCc3ccccc32)oc2ccc3c(c12)C(=O)CC(C)(c1ccc(Cl)cc1)O3` (centres unmarked) [FORMULA I, 11-(4-chlorophenyl)-4-(2,3-dihydro-1H-indole-1-carbonyl)-3,11-dimethyl-5,10,dioxatricyclo[7.4.0.0,2,6,]trideca-1,3,6,8-tetraen-13-one], the “oxaliplatin-induced apoptosis (cleaved PARP)” value [1] was “sensitized Ras transformed p53-null MEF cell line to oxaliplatin-induced apoptosis; also recorded: increases the cleaved PARP protein level” and the “steady-state level of CRY1” value (CRY1) was “level of CRY1 reduced; also recorded: decreased the steady-state level of CRY1”.
